Experimental data taken from US6093732A, “4-hydroxyquinoline-3-carboxamides and hydrazides as antiviral agents” (Pharmacia & Upjohn Company, priority 1998, dated 2000).

Biological target: T1, HCMV polymerase (Human cytomegalovirus, UniProt P08546)
T1 construct: made in house; host or cells: recombinant baculovirus-infected SF-9 cells
Assay: HCMV polymerase scintillation proximity assay (SPA), modified version
Format: biochemical
Settings: CMV polymerase; Table 1; modified assay with 4.5 mM DTT, compounds in 100% DMSO; read-out: Antiviral Selective Polymerase IC50 Values, CMV
Experimental: The HCMV polymerase assay is performed using a scintillation proximity assay (SPA) as described in several references, such as N. D. Cook, et al., Pharmaceutical Manufacturing International, pages 49-53 (1992); K. Takeuchi, Laboratory Practice, September issue (1992); U.S. Pat. No. 4,568,649 (1986); which are incorporated by reference herein. Reactions are performed in 96-well plates. The assay is conducted in 100 μl volume with 5.4 mM HEPES (pH 7.5), 11.7 mM KCl, 4.5 mM MgCl2, 0.36 mg/ml BSA, and 90 nM ^3 H-dTTP. Assays are run with and without CHAPS, (3-[(3-Cholamidopropyl)-dimethylammonio]-1-propane-sulfonate) at a final concentration of 2 mM. HCMV polymerase is diluted in enzyme dilution buffer containing 50% glycerol, 250 mM NaCl, 10 mM HEPES (pH 7.5), 100 μg/ml BSA, and 0.01% sodium azide. The HCMV polymerase, which is expressed in recombinant baculovirus-infected SF-9 cells and purified according to literature procedures, is added at 10% (or 10 μl) of the final reaction volume, i.e., 100 μl. Compounds are diluted in 50% DMSO and 10 μl are added to each well. Control wells contain an equivalent concentration of DMSO. Unless noted otherwise, reactions are initiated via the addition of 6 nM biotinylated poly(dA)-oligo(dT) template/primer to reaction mixtures containing the enzyme, substrate, and compounds of interest. Plates are incubated in a 25° C. or 37° C. H2 O bath and terminated via the addition of 40 μl/reaction of 0.5 M EDTA (pH 8) per well. Reactions are terminated within the time-frame during which substrate incorporation is linear and varied depending upon the enzyme and conditions used, i.e., 30 min. for HCMV polymerase. Ten μl of streptavidin-SPA beads (20 mg/ml in PBS/10% glycerol) are added following termination of the reaction. Plates are incubated 10 min. at 37° C., then equilibrated to room temperature, and counted on a Packard Topcount. Linear regressions are performed and IC50 's are calculated using computer software.
A modified version of the above HCMV polymerase assay is performed as described above, but with the following changes: Compounds are diluted in 100% DMSO until final dilution into assay buffer. In the previous assay, compounds are diluted in 50% DMSO. 4.5 mM dithiotherotol (DTT) is added to the polymerase buffer. […] Other viral polymerase assays are performed using procedures similar to those described above.

T1 sequence (P08546 whole entry): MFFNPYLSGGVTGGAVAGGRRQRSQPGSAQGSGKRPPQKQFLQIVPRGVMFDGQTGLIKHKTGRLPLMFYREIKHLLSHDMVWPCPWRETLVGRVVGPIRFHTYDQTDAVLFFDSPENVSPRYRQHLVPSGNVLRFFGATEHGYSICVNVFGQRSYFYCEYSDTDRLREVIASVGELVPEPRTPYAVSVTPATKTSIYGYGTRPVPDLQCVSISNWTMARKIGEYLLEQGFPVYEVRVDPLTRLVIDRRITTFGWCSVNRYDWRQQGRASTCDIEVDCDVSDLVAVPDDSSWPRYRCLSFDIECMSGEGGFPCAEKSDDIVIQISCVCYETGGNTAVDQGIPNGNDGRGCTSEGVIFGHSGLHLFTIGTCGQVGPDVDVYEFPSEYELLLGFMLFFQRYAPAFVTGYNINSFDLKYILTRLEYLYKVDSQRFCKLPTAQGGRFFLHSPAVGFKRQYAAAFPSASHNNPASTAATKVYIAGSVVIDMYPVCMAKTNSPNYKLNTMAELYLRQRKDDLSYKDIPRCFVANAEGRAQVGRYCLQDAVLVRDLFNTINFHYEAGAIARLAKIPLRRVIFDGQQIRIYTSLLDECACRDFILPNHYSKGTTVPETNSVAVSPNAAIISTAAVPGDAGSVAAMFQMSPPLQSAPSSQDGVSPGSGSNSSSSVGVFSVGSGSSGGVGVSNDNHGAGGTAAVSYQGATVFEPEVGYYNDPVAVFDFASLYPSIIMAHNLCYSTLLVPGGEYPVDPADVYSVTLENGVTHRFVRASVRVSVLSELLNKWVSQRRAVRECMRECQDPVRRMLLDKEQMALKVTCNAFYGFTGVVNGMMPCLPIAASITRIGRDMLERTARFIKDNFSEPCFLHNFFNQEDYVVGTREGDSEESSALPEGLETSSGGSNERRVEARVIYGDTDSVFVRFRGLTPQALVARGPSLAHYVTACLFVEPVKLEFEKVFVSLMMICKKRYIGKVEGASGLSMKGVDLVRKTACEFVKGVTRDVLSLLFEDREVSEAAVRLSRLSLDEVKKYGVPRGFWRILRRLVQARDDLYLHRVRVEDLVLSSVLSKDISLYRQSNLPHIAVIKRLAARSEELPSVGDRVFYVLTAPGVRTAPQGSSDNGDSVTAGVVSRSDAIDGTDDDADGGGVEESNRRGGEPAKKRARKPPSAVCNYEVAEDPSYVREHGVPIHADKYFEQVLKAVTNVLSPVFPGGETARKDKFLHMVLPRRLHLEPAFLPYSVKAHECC

SMILES | IC50 [µM]
CN(CCS(=O)(=O)O)C(=O)CCCCCCC(=O)OCCCc1cc(F)c2ncc(C(=O)NCc3ccc(Cl)cc3)c(O)c2c1 | 11.5
CN(CCS(=O)(=O)O)C(=O)CCCCCCC(=O)OCC#Cc1ccc2ncc(C(=O)NCc3ccc(Cl)cc3)c(O)c2c1 | 16.5
O=C(NCc1ccc(Cl)cc1)c1cnc2c(F)cc(O)cc2c1O [Example 3, N-[(4-Chlorophenyl)methyl]-8-fluoro-4,6-dihydroxy-3-quinoline-carboxamide] | 24
O=C(NCc1ccc(Cl)cc1)c1cnc2c(F)cc(Br)cc2c1O [Example 4] | 3.4
O=C(NCc1ccc(Cl)cc1)c1cnc2c(F)cc(I)cc2c1O [Example 5, N-[(4-Chlorophenyl)methyl]-8-fluoro-4-hydroxy-6-iodo-3-quinolinecarboxamide] | 5.8
O=C(NCc1ccc(Cl)cc1)c1cnc2cc(C(F)(F)F)cc(C(F)(F)F)c2c1O [Example 8, N-[(4-Chlorophenyl)methyl]-4-hydroxy-5,7-bis(trifluoromethyl)-3-quinolinecarboxamide] | 55.3
Cc1ccc2c(O)c(C(=O)NCc3ccc(Cl)cc3)cnc2c1 [Example 11, N-[(4-Chlorophenyl)methyl]-4-hydroxy-7-methyl-3-quinoline-carboxamide] | 21.2
O=C(NCc1ccc(Cl)cc1)c1cnc2c(F)ccc(F)c2c1O [Example 17, N-[(4-Chlorophenyl)methyl]-5,8-difluoro-4-hydroxy-3-quinolinecarboxamide] | 3.3
O=C(NCc1ccc(Cl)cc1)c1cnc2c(F)c(F)ccc2c1O [Example 18, N-[(4-Chlorophenyl)methyl]-7,8-difluoro-4-hydroxy-3-quinoline-carboxamide] | < 3.1
COc1cccc2c(O)c(C(=O)NCc3ccc(Cl)cc3)cnc12 [Example 20, N-[(4-Chlorophenyl)methyl]-4-hydroxy-8-methoxy-3-quinoline-carboxamide] | 6.5
O=C(NCc1ccc(Cl)cc1)c1cnc2ccc(Cl)cc2c1O [Example 21, 6-Chloro-N-[(4-chlorophenyl)methyl]-4-hydroxy-3-quinoline-carboxamide] | 4.4
Cc1ccc2ncc(C(=O)NCc3ccc(Cl)cc3)c(O)c2c1 [Example 22, N-[(4-Chlorophenyl)methyl]-4-hydroxy-6-methyl-3-quinoline-carboxamide] | 4
COc1ccc2ncc(C(=O)NCc3ccc(Cl)cc3)c(O)c2c1 [Example 23, N-[(4-Chlorophenyl)methyl]-4-hydroxy-6-methoxy-3-quinoline-carboxamide] | 3.4
N#Cc1ccc2ncc(C(=O)NCc3ccc(Cl)cc3)c(O)c2c1 [Example 24, N-[(4-Chlorophenyl)methyl]-6-cyano-4-hydroxy-3-quinoline-carboxamide] | 4.9
CN(C)c1ccc2c(O)c(C(=O)NCc3ccc(Cl)cc3)cnc2c1 [Example 27, N-[(4-Chlorophenyl)methyl]-7-(dimethylamino)-4-hydroxy-3-quinolinecarboxamide] | 16
O=C(NCc1ccc(Cl)cc1)c1cnc2cc(NS(=O)(=O)c3ccccc3)ccc2c1O [Example 33, N-[(4-Chlorophenyl)methyl]-4-hydroxy-7-[(phenylsulfonyl)-amino]-3-quinolinecarboxamide] | 24.3
O=C(NCc1ccc(Cl)cc1)c1cnc2cc(NS(=O)(=O)Cc3ccccc3)ccc2c1O [Example 34, N-[(4-Chlorophenyl)methyl]-4-hydroxy-7-[[(phenylmethyl)-sulfonyl]amino]-3-quinolinecarboxamide] | 17.9
O=C(NCc1ccc(Cl)cc1)c1cnc2cc(NS(=O)(=O)c3ccc(Cl)cc3)ccc2c1O [Example 35, N-[(4-Chlorophenyl)methyl]-7-[[(4-chlorophenyl)sulfonyl]amino]-4-hydroxy-3-quinolinecarboxamide] | 9.2
O=C(NNc1ccc(Cl)cc1)c1cnc2c(F)cccc2c1O [Example 36, 8-Fluoro-4-hydroxy-3-quinolinecarboxylic acid 2-(4-chlorophenyl) hydrazide] | 7.8
Cc1cc(F)c2ncc(C(=O)NCc3ccc(Cl)cc3)c(O)c2c1 [Example 38, N-[(4-Chlorophenyl)methyl]-8-fluoro-4-hydroxy-6-methyl-3-quinolinecarboxamide] | 3.2

Next, values leading:

IC50 [µM] | SMILES
< 3.1 | O=C(NCc1ccc(Cl)cc1)c1cnc2cc(I)ccc2c1O [Example 39, N-[(4-Chlorophenyl)methyl]-4-hydroxy-7-iodo-3-quinolinecarboxamide]
3.5 | O=C(NCc1ccc(Cl)cc1)c1cnc2ccc(I)cc2c1O [Example 40, N-[(4-Chlorophenyl)methyl]-4-hydroxy-6-iodo-3-quinoline-carboxamide]
12.1 | N#CCc1ccc2ncc(C(=O)NCc3ccc(Cl)cc3)c(O)c2c1 [Example 41, N-[(4-Chlorophenyl)methyl]-6-(cyanomethyl)-4-hydroxy-3-quinolinecarboxamide]
19.2 | O=C(NCc1ccc(Cl)cc1)c1cnc2cccc(O)c2c1O [Example 42, N-[(4-Chlorophenyl)methyl]-4,5-dihydroxy-3-quinolinecarboxamide]
1.3 | O=C(NCc1ccc(Cl)cc1)c1cnc2c(Cl)c(Cl)ccc2c1O [Example 43, 7,8-Dichloro-N-[(4-chlorophenyl)methyl]-4-hydroxy-3-quinolinecarboxamide]
28.7 | O=C(NCc1ccc(Cl)cc1)c1cnc2ccc(O)cc2c1O [Example 44, N-[(4-Chlorophenyl)methyl]-4,6-dihydroxy-3-quinoline-carboxamide]
4.6 | O=C(NCc1ccc(Cl)cc1)c1cnc2c(O)cccc2c1O [Example 45, N-[(4-Chlorophenyl)methyl]-4,8-dihydroxy-3-quinoline-carboxamide]
2.8 | O=C(NCc1ccc(Cl)cc1)c1cnc2c(Cl)cccc2c1O [Example 46, 8-Chloro-N-[(4-chlorophenyl)methyl]-4-hydroxy-3-quinolinecarboxamide]
39.7 | O=C(NCc1ccc(Cl)cc1)c1cnc2ccc(S(=O)(=O)Nc3ccnn3-c3ccccc3)cc2c1O [Example 47, N-[(4-Chlorophenyl)methyl]-4-hydroxy-6-[[(1-phenyl-1H-pyrazol-5-yl)amino]sulfonyl]-3-quinolinecarboxamide]
6.5 | N#Cc1cccc2c(O)c(C(=O)NCc3ccc(Cl)cc3)cnc12 [Example 48, N-[(4-Chlorophenyl)methyl]-8-cyano-4-hydroxy-3-quinoline-carboxamide]
3.7 | O=C(NCc1ccc(Cl)cc1)c1cnc2c([N+](=O)[O-])cccc2c1O [Example 49, N-[(4-Chlorophenyl)methyl]-4-hydroxy-8-nitro-3-quinoline-carboxamide]
6.9 | Cc1c(N)ccc2c(O)c(C(=O)NCc3ccc(Cl)cc3)cnc12 [Example 50, 7-Amino-N-[(4-chlorophenyl)methyl]-4-hydroxy-8-methyl-3-quinolinecarboxamid]
12.2 | N#Cc1cc(F)c2ncc(C(=O)NCc3ccc(Cl)cc3)c(O)c2c1 [Example 51, N-[(4-Chlorophenyl)methyl]-6-cyano-8-fluoro-4-hydroxy-3-quinolinecarboxamide]
11 | NC(=S)c1cc(F)c2ncc(C(=O)NCc3ccc(Cl)cc3)c(O)c2c1 [Example 52, 6-(Aminothioxomethyl)-N-[(4-chlorophenyl)methyl]-8-fluoro-4-hydroxy-3-quinolinecarboxamide]
8.6 | O=C(NNc1ccc(Cl)cc1)c1cnc2c(F)cc(I)cc2c1O [Example 54, 8-Fluoro-4-hydroxy-6-iodo-3-quinolinecarboxylic acid 2-(4-chlorophenyl)hydrazide]
5 | Cc1cc(F)c2ncc(C(=O)NNc3ccc(Cl)cc3)c(O)c2c1 [Example 55, 8-Fluoro-4-hydroxy-6-methyl-3-quinolinecarboxylic acid 2-(4-chlorophenyl)hydrazide]
3.1 | O=C(NCc1ccc(Cl)cc1)c1cnc2cc(Cl)ccc2c1O [Example 56, 7-Chloro-N-((4-chlorophenyl)methyl)-4-hydroxy-3-quinoline-carboxamide]
5.2 | O=C(NCc1ccc(Cl)cc1)c1cnc2ccc(Br)cc2c1O [Example 57, 6-Bromo-N-((4-chlorophenyl)methyl)-4-hydroxy-3-quinoline-carboxamide]
1 | O=C(NCc1ccc(Cl)cc1)c1cnc2ccc(-c3ccccc3)cc2c1O [Example 58, N-((4-Chlorophenyl)methyl)-4-hydroxy-6-phenyl-3-quinoline-carboxamide]
